For experiment [1], the system named is Balb/C female mice. Nature of the experiment: Hematopoietic recovery after cyclophosphamide in mice (spleen weight, blood cell counts). It counts as in vivo, mouse. Particulars: for spleen weight: Ex 38: day 7 after CP, guanosine 5, acyl derivatives 2.5 μmoles/mouse/day in 0.2% Tween 80 i.p. 6 days, Tween 80 0.2%. How it is done:
Twenty-four hours later and each day thereafter for a total of 6 days, mice were given a 0.4 ml i.p. injection of either physiological saline (controls), guanine (5 μmoles/mouse/day), or guanosine (5 μmoles/mouse/day). On day 7 all 10 mice in each of the three groups were bled, and then sacrificed by cervical dislocation. Spleens were removed and weighed, and complete blood cell counts performed.
Twenty-four hours later and each day thereafter for a total of 6 days, mice were given a 0.4 ml i.p injection of either physiological saline (controls), Tween 80 (0.2%), guanosine (5 μmoles/mouse/day in 0.2% Tween 80), or 2.5 μmoles per mouse per day of one of the following acylated derivatives of guanosine in 0.2% Tween 80: triacetylguanosine, octanoylguanosine, lauroylguanosine, or palmitoylguanosine. On day 7 following CP administration all 10 animals from each of the 7 groups were bled, and then sacrificed by cervical dislocation. Spleens were removed and weighed, and complete blood counts performed.
Twenty-four hours later treatment was begun. Mice were given a 0.4 ml i.p. injection of either physiological saline (controls), Tween 80 (0.2%), or palmitoylguanosine (5 μmoles/mouse/day in 0.2% Tween 80). The timing of the treatments was varied within the groups. The control group was given saline on days 1-6. The mice receiving Tween 80 were treated either on days 1-4, 4-6 or 1-6. Palmitoylguanosine-treated mice were treated either on days 1-2, 1-4, 3-5, 4-6 or 1-6. If a group of mice received no Tween 80 or palmitoylguanosine on a given day, saline was administered by i.p. injection. Thus, there were 9 groups of 9 animals in all. On day 7 following CP administration all of the animals were bled and then sacrificed by cervical dislocation. Spleens were removed and weighed, and complete blood cell counts performed.
Twenty-four hours later and each day thereafter for a total of 6 days, mice were given a 0.4 ml i.p. injection of either physiological saline (controls), Tween 80 (0.5%), or one of three different doses of octanoylguanosine (0.5, 2.5, or 5 μmoles/mouse/day in 0.5% Tween 80). On day 7 following CP administration all 9 animals from each of the […] were bled and then sacrificed by cervical dislocation. Spleens were removed and weighed, and complete blood cell counts performed.
Twenty-four hours later and each day thereafter for a total of 6 days, mice were given a 0.4 ml i.p. injection of either physiological saline (controls), Tween 80 (0.5%), or octanoylguanosine (5.0 μmoles/mouse/day in 0.5% Tween 80). On day 7 following CP administration all 10 animals from each of the 3 groups were bled and then sacrificed by cervical dislocation. Spleens were removed, weighed, and fixed in 10% formalin for later histological examination. Complete blood cell counts were performed on the collected blood.
Twenty-four hours later and each day thereafter for a total of 6 days, mice were given a 0.4 ml i.p. injection of either physiological saline (controls), benzoylguanosine (2.5 μmoles/mouse/day in 0.2% Tween 80), or palmitoylguanosine (2.5 μmoles/mouse/day in 0.2% Tween 80). On days 7 and 10 following CP administration 8 animals from each of the 3 groups were bled and then were sacrificed by cervical dislocation. Spleens were removed and weighed, and complete blood cell counts performed.
Twenty four hours later and each day thereafter for a total of 4 or 6 days, mice were given a 0.4 ml i.p. injection of either physiological saline (controls), palmitoyldeoxyinosine (2.5 μmoles/mouse), or palmitoyl-xanthosine (2.5 μmoles/mouse). On days 5 and 7 following CP administration 6 of the 12 animals in each of the 3 groups were bled and then sacrificed by cervical dislocation. Spleens were removed and weighed, and complete blood cell counts performed.

The test system of experiment [2] is Balb/C female mice. Described as above. Format: in vivo, mouse. The note with it: for total neutrophil counts: 2 μmoles/mouse; for recovery of blood cell counts: Ex 58: mice treated with cyclophosphamide, other nonionic surfactants.
The next experiment deals with FDCPmix cells. Nature of the experiment: FDCPmix cell proliferation in the presence of IL-3 (MTT assay). It counts as cell-based. How it is done: The FDCPmix cell line was used as a suitable in vitro model for predicting the effects of hematopoietic factors on pluripotential stem cells. These cells can be maintained in an undifferentiated state in the presence of IL-3 or undergo multi-lineage development in the presence of specific hematopoietic growth factors.
This level of proliferation (100%) served as the control value. Inhibition of proliferation by test compounds was represented as a percent of control.
FDCPmix cells were plated at a density of 5×10^4 cells per well in 96-well plates (5×10^5/ml) using IMDM medium plus 10% fetal bovine serum. […] Test compounds were added at a decreasing concentrations ranging from 10 micrograms/ml down to 1 nanogram/ml. The test compounds included: 3′,5′-O—N^2-tripalmitoyl-2′-deoxyguanosine, 3′,5′-di-O-palmitoyl-2′-deoxy-guanosine, 3′,5′-O—N^2-trioctanoyl-2′-deoxyguanosine, 3′,5′-di-O-octanoyl-2′-deoxyguanosine, and 3′,5′-o-N^2-trioleyl-2′-deoxy-guanosine.
For orientation: Tetrazolium dyes change colour on reduction, which living cells bring about.

The mark [3] stands for this setting: Ex 47: day 7 after CP, 2.5 μmoles/mouse/day.
[4] abbreviates: Ex 45: day 7 after CP, dose-dependent, 0.5-5 μmoles/mouse/day.
[5] abbreviates: Ex 46: day 7 after CP, 5.0 μmoles/mouse/day.
[6] abbreviates: Ex 51: day 5 after CP, 2 μmoles/mouse i.p. daily, vs Tween-80.
Setting [7] is: Dose 10 μg, 48 hours, IL-3 25 units/ml.
Setting [8] is: Table 8 (Ex 63): 7 days after CP.
Where [9] appears, read: Ex 48: day 7 after CP, 2.5 μmoles/mouse.

For `Nc1nc2c(ncn2[C@@H]2O[C@H](COC(=O)c3ccccc3)[C@@H](O)[C@H]2O)c(=O)[nH]1`, the platelet number result in the experiment on Balb/C female mice [1] (Ex 47: day 10 after CP, 2.5 μmoles/mouse/day) is listed as “significantly greater”. Moreover, in the experiment on Balb/C female mice [2] (setting [3]), the Neutrophils result was “significantly elevated” and the spleen weight result is “significantly elevated”. Also, the “total white blood cells” value in the experiment on Balb/C female mice [2] (Ex 47: day 7 after CP, 2.5 μmoles/mouse/day in 0.2% Tween 80 i.p. 6 days) is “significantly elevated”.

On to `CCCCCCCC(=O)OC[C@H]1O[C@@H](n2cnc3c(=O)[nH]c(N)nc32)[C@H](O)[C@@H]1O`, for which the spleen weight entry with Balb/C female mice [1] is on record as “significantly larger spleens”. The “total number of neutrophils” value with Balb/C female mice [1] (setting [4]) is recorded as “significantly increased”. In the experiment with Balb/C female mice [1] (setting [5]), the “peripheral white blood cells (WBC)” value is recorded as “significantly greater”. Moreover, the spleen size result with Balb/C female mice [2] (Ex 45: day 7 after CP, 0.5, 2.5 or 5 μmoles/mouse/day in 0.5% Tween 80 i.p. 6 days) is “significantly larger”. In the experiment with Balb/C female mice [2] (setting [4]), the “total number of leukocytes” value is given as “significantly increased”. The Neutrophils entry in the experiment on Balb/C female mice [2] (setting [5]) is recorded as “significantly greater”. For the same molecule, the “lymphopoiesis and myelopoiesis in the spleens (histology)” value with Balb/C female mice [2] (setting [5]) is “much greater”. The spleen weights entry in the experiment on Balb/C female mice [2] (Ex 46: day 7 after CP, 5.0 μmoles/mouse/day in 0.5% Tween 80, vs saline or Tween 80) is listed as “significantly greater”. Besides, the neutrophil counts result with Balb/C female mice [2] (Ex 58: 50 mg/kg in 0.2% Tween 80 vs same dose in 0.02% Tween 80) is “significantly higher”; in the experiment with Balb/C female mice [2] (Ex 58: day 7 after CP, 50 mg/kg/dose in 0.02% and 0.2% Tween 80, vs saline), “significantly different from controls”.

As for `CCCCCCCCCCCCCCCC(=O)O[C@H]1C[C@H](n2cnc3c(=O)[nH]c(N)nc32)O[C@@H]1CO` [3′-O-palmitoyldeoxyguanosine, 3′-O-Palmitoyl-2′-Deoxyguanosine], the total neutrophil counts entry in the experiment with Balb/C female mice [2] (Ex 51: day 5 after CP) is listed as “significantly elevated”. Besides, in the experiment on Balb/C female mice [2] (setting [6]), the spleen weight entry is reported as “significantly elevated”.

Consider `CCCCCCCC(=O)OC[C@H]1O[C@@H](n2cnc3c(=O)[nH]c(N)nc32)C[C@@H]1OC(=O)CCCCCCC` [DiOctdG, 3′,5′-di-O-octanoyl-2′-deoxyguanosine], for which the “Cell proliferation (% of Control)” value in the experiment with FDCPmix cells (Dose 10 ng) is listed as 84 ± 2 % of Control; in the experiment on FDCPmix cells (Dose 39 ng) it was 86 ± 1 % of Control; with FDCPmix cells (Dose 156 ng), 84 ± 6 % of Control; in the experiment on FDCPmix cells (Dose 625 ng), 93 ± 1 % of Control; in the experiment with FDCPmix cells (Dose 2.5 μg), 78 ± 2 % of Control; in the experiment with FDCPmix cells (setting [7]), 100 ± .3 % of Control.

For the molecule `CCCCCCCCCCCCCCCC(=O)OC[C@H]1O[C@@H](n2cnc3c(=O)[nH]c(NC(=O)C(C)C)nc32)C[C@@H]1O` [NibuPdG, N^2-isobutyryl-5′-O-palmitoyl-2′-deoxyguanosine], in the experiment with Balb/C female mice [2] (Ex 51: day 5 after CP), the total neutrophil counts entry is on record as “significantly elevated”. Moreover, the spleen weight entry in the experiment with Balb/C female mice [2] (setting [6]) is on record as “significantly elevated”.

For the molecule `CCCCCCCCCCCCCCCC(=O)OC[C@H]1O[C@@H](n2cnc3c(=O)[nH]cnc32)[C@H](O)[C@@H]1O` [Palmitoylinosine], in the experiment with Balb/C female mice [2] (Ex 49 heading, 2.5 μmoles/mouse), the “Hematopoietic Recovery after cyclophosphamide” value is recorded as “Improves”.

As to `CCCCCCCC(=O)Nc1nc2c(ncn2[C@H]2C[C@H](OC(=O)CCCCCCC)[C@@H](COC(=O)CCCCCCC)O2)c(=O)[nH]1` [TriOctdG, 3′,5′-O—N^2-trioctanoyl-2′-deoxyguanosine], the “Cell proliferation (% of Control)” value was 87 ± 4 % of Control with FDCPmix cells (Dose 10 ng); 85 ± 2 % of Control in the experiment with FDCPmix cells (Dose 39 ng); 89 ± 6 % of Control in the experiment with FDCPmix cells (Dose 156 ng); 86 ± 2 % of Control with FDCPmix cells (Dose 625 ng); 96 ± .1 % of Control in the experiment on FDCPmix cells (Dose 2.5 μg); 107 ± 1 % of Control in the experiment with FDCPmix cells (setting [7]).

For the molecule `CCCCCCCC/C=C\CCCCCCCC(=O)Nc1nc2c(ncn2[C@H]2C[C@H](OC(=O)CCCCCCC/C=C\CCCCCCCC)[C@@H](COC(=O)CCCCCCC/C=C\CCCCCCCC)O2)c(=O)[nH]1` [TriOdG, 3′,5′-O-N^2-trioleyl-2′-deoxyguanosine], in the experiment with Balb/C female mice [2] (Ex 63: day 7 after CP, molar equivalent of 25 mg/kg TriPdG), the lymphocyte counts result is “increased”. For the same molecule, the Platelets in the experiment with Balb/C female mice [2] (setting [8]) is 741 ± 54 K/μl. Further, the “Cell proliferation (% of Control)” value was 92 ± 5 % of Control with FDCPmix cells (Dose 10 ng); 91 ± 5 % of Control with FDCPmix cells (Dose 39 ng); 92 ± 5 % of Control in the experiment with FDCPmix cells (Dose 156 ng); 98 ± 6 % of Control in the experiment on FDCPmix cells (Dose 625 ng); 80 ± 2 % of Control with FDCPmix cells (Dose 2.5 μg); 110 ± 3 % of Control in the experiment on FDCPmix cells (setting [7]).

Turning to `CCCCCCCCCCCCCCCCCC(=O)Nc1nc2c(ncn2[C@H]2C[C@H](OC(=O)CCCCCCCCCCCCCCCCC)[C@@H](COC(=O)CCCCCCCCCCCCCCCCC)O2)c(=O)[nH]1` [TriSdG, 3′,5′-O-N^2-tristearyl-2′-deoxyguanosine], in the experiment with Balb/C female mice [2] (setting [8]), the Neutrophils is 5.4 ± .5 K/μl and the WBC is given as 7.6 ± .4 K/μl. In addition, in the experiment with Balb/C female mice [2] (Table 8 (Ex 63): 7 days after CP, TriPdG 25 mg/kg, others molar equivalent, daily 5 days), the Spleen was 85 ± 9 mg.

In the case of `CC(=O)OC[C@H]1O[C@@H](n2cnc3c(=O)[nH]c(N)nc32)[C@H](OC(C)=O)[C@@H]1OC(C)=O` [acetylguanosine, triacetylguanosine], the spleen weight result with Balb/C female mice [1] is “significantly larger spleens”.

For `CCCCCCCCCCCC(=O)OC[C@H]1O[C@@H](n2cnc3c(=O)[nH]c(N)nc32)[C@H](O)[C@@H]1O` [laurolyguanosine, Lauroylguanosine], in the experiment on Balb/C female mice [1], the spleen weight result is “significantly larger spleens”.

Take `CCCCCCCCCCCCCCCC(=O)OC[C@H]1O[C@@H](n2c(N)nc3c(=O)[nH]c(N)nc32)[C@H](O)[C@@H]1O` [palmitoyl-8-aminoguanosine]: the spleen weight entry in the experiment on Balb/C female mice [2] (Ex 59: days 5 and 7 after CP, 25 mg/kg/day) is given as “significantly elevated”. In addition, the Neutrophils entry in the experiment on Balb/C female mice [2] (Ex 59: days 5 and 7 after CP, 25 mg/kg/day in 0.2% Tween 80 i.p.) is given as “significantly elevated”.

`CCCCCCCCCCCCCCCC(=O)OC[C@H]1O[C@@H](n2cnc3c(=O)[nH]c(=O)[nH]c32)[C@H](O)[C@@H]1O` [palmitoylxanthosine, Palmitoylxanthosine]: in the experiment with Balb/C female mice [1] (setting [9]), the Neutrophils result is recorded as “significantly increased” and the total leukocytes entry was “significantly increased”. For the same molecule, the spleen weight result in the experiment on Balb/C female mice [2] (setting [9]) is “significantly increased”.

Regarding Triton X-100, the “recovery of blood cell counts” value in the experiment on Balb/C female mice [2] is “enhanced the recovery”.

Take Tween 20: the “recovery of blood cell counts” value in the experiment on Balb/C female mice [2] is recorded as “enhanced the recovery”.

In the case of Tween 40, the “recovery of blood cell counts” value in the experiment with Balb/C female mice [2] was “enhanced the recovery”.

For “octylphenol-ethylene oxide condensate [Nonidet P-40]”, the “recovery of blood cell counts” value with Balb/C female mice [2] is reported as “enhanced the recovery”.

With “polyoxyethylene-10-oleyl ether [Brij 96]”, in the experiment with Balb/C female mice [2], the “recovery of blood cell counts” value is “enhanced the recovery”.
